The source of these data is patent publication US9758492B2, “IDO inhibitors” (Bristol-Myers Squibb Company, priority 2013, dated 2017).

The target of test [1] is T1, Human IDO1 (Homo sapiens, UniProt P14902).
T1 construct: expressed in transfected cells; host or cells: HEK293
Description: IDO Kynurenine Assay with Human IDO1/HEK293 Cells. The class given is cell-based. The following applies: read-out: HEK human IDO-1 (IC50). Put shortly: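 HEK293 cells stably expressing human IDO1, in phenol red-free RPMI/10% FBS, exposed to compound for 20 h at 37 °C. Stopped with 0.2% TCA (50 °C, 30 min); kynurenine in supernatant detected with Ehrlich reagent, absorbance 490 nm.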

In test [2] the target is IDO (Homo sapiens, UniProt P14902). Description: LLE_IDO_ABS_DR (IDO assay).
Sequence of IDO (P14902 whole entry): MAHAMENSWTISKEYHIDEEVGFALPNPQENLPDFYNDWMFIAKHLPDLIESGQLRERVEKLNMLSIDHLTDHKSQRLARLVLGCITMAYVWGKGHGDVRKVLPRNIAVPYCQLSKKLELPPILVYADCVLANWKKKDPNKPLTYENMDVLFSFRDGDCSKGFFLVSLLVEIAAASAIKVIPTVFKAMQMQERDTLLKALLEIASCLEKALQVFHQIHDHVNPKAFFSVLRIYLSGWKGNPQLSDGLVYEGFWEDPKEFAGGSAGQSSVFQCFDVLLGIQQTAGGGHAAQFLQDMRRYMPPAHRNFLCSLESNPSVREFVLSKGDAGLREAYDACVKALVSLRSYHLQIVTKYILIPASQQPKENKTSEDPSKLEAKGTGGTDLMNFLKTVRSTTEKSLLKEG

T1 sequence (P14902 whole entry): as above

As a reminder, the IC50 is the point on the concentration scale where inhibition reaches its midpoint. Consider `Cc1ccc(NC(=O)Nc2cc(-c3ccccc3-c3nnn[nH]3)ccc2N(CCC(F)(F)F)Cc2ccc(F)cc2C(F)(F)F)cc1` [Example 502, 1-(4-((4-fluoro-2-(trifluoromethyl)benzyl)(3,3,3-trifluoropropyl)amino)-2′-(1H-tetrazol-5-yl)-[1,1′-biphenyl]-3-yl)-3-(p-tolyl)urea], for which the IC50 in test [1] came to 20 nM; in test [2] it was 5.01 nM.

With `O=C(Nc1ccc(C2CC2)cc1)Nc1cc(-c2ccccc2-c2nn[nH]n2)ccc1N1CC2CC1CN2Cc1ccccc1` (stereo not shown) [Example 348, 1-(4-(5-benzyl-2,5-diazabicyclo[2.2.1]heptan-2-yl)-2′-(2H-tetrazol-5-yl)-[1,1′-biphenyl]-3-yl)-3-(4-cyclopropylphenyl)urea], the IC50 in test [1] and in test [2] was 10 nM each time.

Turning to `C=C(C)CN(CC(F)(F)F)c1ccc(-c2ccccc2-c2nnn[nH]2)cc1NC(=O)Nc1ccc(C)cc1` [Example 472], the results for the IC50 in test [1] and in test [2] were 9.13 nM and 10 nM, respectively.

Take `O=C(Nc1ccc(F)cc1F)Nc1cc(-c2ccccc2-c2nnn[nH]2)ccc1N(CCCC(F)(F)F)Cc1ccc(Cl)cc1` [Example 319, 1-(4-((4-chlorobenzyl)(4,4,4-trifluorobutyl)amino)-2′-(1H-tetrazol-5-yl)-[1,1′-biphenyl]-3-yl)-3-(2,4-difluorophenyl) urea]: the IC50 in test [1] and in test [2] was 20 nM in each case.

Turning to `CC(C)CN(CC(C)C)c1ccc(-c2ccccc2-c2nnn[nH]2)cc1NC(=O)Nc1ccc(OC(F)F)cc1` [Example 453], in test [1], the half-inhibitory concentration (IC50) turned out to be 9.9 nM.

For the molecule `CC(C)CN(CC(C)C)c1cc(F)c(-c2ccccc2C(=O)O)cc1NC(=O)Nc1ccc(Cl)cc1F` [Example 427], in test [1], the IC50 was 1.61 nM.

Consider `Cc1ccc(NC(=O)Nc2cc(-c3cc(F)ccc3C(=O)O)c(F)cc2N(CC(C)C)CC(C)C)cc1` [Example 426], for which the IC50 in test [1] amounted to 8.85 nM.

With `COCCN(c1ccc(-c2ccccc2C(=O)O)cc1NC(=O)Nc1ccc(C)cc1)C1CCCCC1` [Example 445], the IC50 in test [1] came out at 50 nM.

Take `CC(C)CN(c1c(F)cc(-c2cc(F)ccc2C(=O)O)cc1NC(=O)Nc1ccccc1F)C1CCCCC1` [Example 431]: the IC50 in test [1] turned out to be 3.76 nM.

As to `CC(C)CN(c1ccc(-c2cc(F)ccc2C(=O)O)cc1NC(=O)Nc1ccc2ncncc2c1)C1CCCCC1` [Example 405], the concentration for half-maximal inhibition (IC50) in test [1] was determined as 1230 nM.

In the case of `Cc1cccc(-c2ccc(N(CC(C)C)CC(C)C)c(NC(=O)Nc3ccc(OC(F)(F)F)cc3)c2)c1C(=O)O` [Example 309, 4′-(Diisobutylamino)-3-methyl-3′-(3-(4-(trifluoromethoxy)phenyl)ureido)-[1,1′-biphenyl]-2-carboxylic acid], the IC50 in test [1] came to 4 nM.

For `CC(C)CN(CC(C)C)c1cc(F)c(-c2cc(F)ccc2C(=O)O)cc1NC(=O)Nc1ccc(Cl)cc1F` [Example 428], the IC50 in test [1] was determined as 1.84 nM.

On to `Cc1ccc(NC(=O)Nc2cc(-c3cc(F)ccc3C(=O)O)c(F)cc2N(CC(C)C)C2CCCCC2)cn1` [Example 394], for which the IC50 in test [1] worked out at 7.9 nM.

`Cc1ccc(NC(=O)Nc2cc(-c3cc(F)ccc3C(=O)O)c(F)cc2N(CC(C)C)C2C[C@H]3CC[C@@H]2C3)cc1` (stereo partly shown) [Example 410]: the IC50 in test [1] was found to be 50 nM.

For `CC(C)CN(c1c(F)cc(-c2ccccc2-c2nnn[nH]2)cc1NC(=O)Nc1ccc(Cl)cc1F)C1CCCCC1` [Example 436], the IC50 in test [1] stood at 1.16 nM.

Regarding `CC(C)CN(CC(C)C)c1ccc(-c2ccccc2-c2nnn[nH]2)cc1NC(=O)Nc1cc(C(F)(F)F)no1` [Example 398], in test [1], the IC50 is 9.69 nM.

For `Cc1ccc(NC(=O)Nc2cc(-c3ccccc3C(=O)O)cc(F)c2N(CC(C)C)C2CCCCC2)cc1` [Example 437], the IC50 in test [1] came out at 3.13 nM.

Consider `CC(C)CN(c1cc(F)c(-c2cc(F)ccc2C(=O)O)cc1NC(=O)Nc1ccc(N2CCOCC2)cc1)C1CCCCC1` [Example 524, 4′-(Cyclohexyl(isobutyl)amino)-2′,5-difluoro-5′-(3-(4-morpholinophenyl)ureido)-[1,1′-biphenyl]-2-carboxylic acid], for which the IC50 in test [1] was 2720 nM.

In the case of `CCOc1ccc(NC(=O)Nc2cc(-c3ccccc3-c3nnn[nH]3)ccc2N(CC(C)C)CC(C)C)cc1` [Example 454], the IC50 in test [1] worked out at 2.35 nM.

For `Cc1ccc(NC(=O)Nc2cc(-c3ccccc3C(=O)O)ccc2N(CCCC(F)(F)F)C2CCCCC2)cc1` [Example 416], the IC50 in test [1] was found to be 100 nM.

Turning to `C=C(C)CN(CCCC(F)(F)F)c1ccc(-c2cc(F)ccc2C(=O)O)cc1NC(=O)Nc1ccc(C)cc1` [Example 419], the IC50 in test [1] was 5.08 nM.

In the case of `CC(C)CN(c1cc(F)c(-c2cc(F)ccc2C(=O)O)cc1NC(=O)Nc1ccc2c(c1)OCO2)C1CCC(F)(F)CC1` [Example 531, 5′-(3-(Benzo[d][1,3]dioxol-5-yl)ureido)-4′-((4,4-difluorocyclohexyl)(isobutyl)amino)-2′,5-difluoro-[1,1′-biphenyl]-2-carboxylic acid], the IC50 in test [1] is 20 nM.

`Cc1ccc(NC(=O)Nc2cc(-c3ccccc3C(=O)O)c(F)cc2N(CC(C)C)CC(C)C)cc1` [Example 425]: the IC50 in test [1] was 10 nM.

As to `CCC(CC)N(CC(C)C)c1ccc(-c2ccccc2C(=O)O)cc1NC(=O)Nc1ccc(C)cc1` [Example 443], the IC50 in test [1] was found to be 10 nM.

As to `CC(C)CN(c1cc(F)c(-c2cc(F)ccc2C(=O)O)cc1NC(=O)Nc1ccc(C(F)(F)F)nc1)C1CCCCC1` [Example 517, 4′-(Cyclohexyl(isobutyl)amino)-2′,5-difluoro-5′-(3-(6-(trifluoromethyl)pyridin-3-yl)ureido)-[1,1′-biphenyl]-2-carboxylic acid], in test [1], the IC50 stood at 70 nM.

Turning to `Cc1ccc(NC(=O)Nc2cc(-c3ccccc3-c3nnn[nH]3)ccc2N(CCCC(F)(F)F)C2CCCCC2)cc1` [Example 467], in test [1], the IC50 amounted to 10 nM.

For `CC(C)CN(c1cc(F)c(-c2cc(F)ccc2C(=O)O)cc1NC(=O)Nc1ccnnc1)C1CCCCC1` [Example 402], in test [1], the IC50 turned out to be 4830 nM.

As for `Cc1cc(NC(=O)Nc2cc(-c3cc(F)ccc3C(=O)O)c(F)cc2N(CC(C)C)C2CCC(F)(F)CC2)no1` [Example 518, 4′-((4,4-Difluorocyclohexyl)(isobutyl)amino)-2′,5-difluoro-5′-(3-(5-methylisoxazol-3-yl)ureido)-[1,1′-biphenyl]-2-carboxylic acid], the 50% inhibitory concentration (IC50) in test [1] amounted to 20 nM.

Consider `C=C(C)CN(CCCC(F)(F)F)c1ccc(-c2ccccc2C(=O)O)cc1NC(=O)Nc1ccc(C)cc1` [Example 418], for which the IC50 in test [1] came to 4.63 nM.

As to `CC(C)CN(c1cc(F)c(-c2cc(F)ccc2C(=O)O)cc1NC(=O)Nc1ccc(C#N)cc1)C1C[C@H]2CC[C@@H]1C2` (stereo partly shown) [Example 411], the IC50 in test [1] came to 50 nM.

For `CCc1ccc(NC(=O)Nc2cc(-c3ccccc3-c3nnn[nH]3)ccc2N(CC(C)C)CC(C)C)cc1` [Example 459], the IC50 in test [1] amounted to 7.09 nM.

Regarding `Cc1ncc(NC(=O)Nc2cc(-c3cc(F)ccc3C(=O)O)c(F)cc2N(CC(C)C)C2C[C@H]3CC[C@@H]2C3)cn1` (stereo partly shown) [Example 413], the IC50 in test [1] stood at 1960 nM.

`Cc1cccc(NC(=O)Nc2cc(-c3cc(F)ccc3C(=O)O)c(F)cc2N(CC(C)C)C2CCCCC2)c1` [Example 516, 4′-(Cyclohexyl(isobutyl)amino)-2′,5-difluoro-5′-(3-(m-tolyl)ureido)-[1,1′-biphenyl]-2-carboxylic acid]: the IC50 in test [1] worked out at 50 nM.

For the molecule `C=C(C)CN(c1ccc(-c2cc(F)ccc2C(=O)O)cc1NC(=O)Nc1ccc(C)cc1)C1CCCCC1` [Example 461], the IC50 in test [1] was 4.24 nM.

Take `[2H]C([2H])(C(C)C)N(c1ccc(-c2ccccc2-c2nnn[nH]2)cc1NC(=O)Nc1ccc(C)cc1)C([2H])([2H])C(C)C` [Example 424]: the IC50 in test [1] stood at 5.27 nM.

With `Cc1ccc(NC(=O)Nc2cc(-c3cccc(OC(F)(F)F)c3C(=O)O)ccc2N(CC(C)C)CC(C)C)cc1` [Example 495], the IC50 in test [1] worked out at 50 nM.

Turning to `Cc1cc(NC(=O)Nc2cc(-c3ccccc3-c3nnn[nH]3)ccc2N(C2CC2)C2CC2)no1` [Example 509, 1-(4-(Dicyclopropylamino)-2′-(1H-tetrazol-5-yl)-[1,1′-biphenyl]-3-yl)-3-(5-methylisoxazol-3-yl)urea], the IC50 in test [1] was 6630 nM.

Regarding `Cc1ccc(NC(=O)Nc2cc(-c3cc(F)ccc3C(=O)O)ccc2N(CCOC(C)C)CC(C)C)cc1` [Example 466], in test [1], the IC50 worked out at 1740 nM.

`Cc1ccc(C(=O)O)c(-c2ccc(N(CC(C)C)CC(C)C)c(NC(=O)Nc3ccccc3F)c2)c1` [Example 526, 4′-(Diisobutylamino)-3′-(3-(2-fluorophenyl)ureido)-5-methyl-[1,1′-biphenyl]-2-carboxylic acid]: the IC50 in test [1] was determined as 240 nM.

With `COc1cccc(-c2ccc(N(CC(C)C)CC(C)C)c(NC(=O)Nc3ccc(Cl)cc3F)c2)c1C(=O)O` [Example 500], in test [1], the IC50 came to 20 nM.

Turning to `Cc1cc(NC(=O)Nc2cc(-c3ccccc3C(=O)O)ccc2N(CC(C)C)C2CCCCC2)on1` [Example 377], the IC50 in test [1] was determined as 1.68 nM.

Turning to `Cc1ccc(NC(=O)Nc2cc(-c3cc(F)ccc3C(=O)O)c(F)cc2N(CC(C)C)C2CCC(F)(F)CC2)cc1` [Example 519, 4′-((4,4-Difluorocyclohexyl)(isobutyl)amino)-2′,5-difluoro-5′-(3-(p-tolyl)ureido)-[1,1′-biphenyl]-2-carboxylic acid], in test [1], the IC50 is 6.91 nM.

For the molecule `COc1cccc(-c2ccc(N(CC(C)C)CC(C)C)c(NC(=O)Nc3ccc(C#N)nc3)c2)c1C(=O)O` [Example 499], in test [1], the IC50 is 1260 nM.

As for `CC(C)CN(c1cc(F)c(-c2ccccc2-c2nnn[nH]2)cc1NC(=O)Nc1ccc2c(c1)OCO2)C1CCC(F)(F)CC1` [Example 532, 1-(Benzo[d][1,3]dioxol-5-yl)-3-(4-((4,4-difluorocyclohexyl)(isobutyl)amino)-6-fluoro-2′-(1H-tetrazol-5-yl)-[1,1′-biphenyl]-3-yl)urea], the IC50 in test [1] came out at 4.82 nM.

On to `CC(C)CN(CC(C)C)c1ccc(-c2ccccc2-c2nnn[nH]2)cc1NC(=O)Nc1ccc(CC#N)cc1` [Example 457], for which the IC50 in test [1] came out at 370 nM.
